Reference: ChEMBL document CHEMBL5131397, “Discovery and Optimization of Pyrazole Amides as Inhibitors of ELOVL1” (J Med Chem, 2021)
Active and inactive are the calls of the source. The rule behind the calls is not given here.

Experiments:
[1] = Toxicity in juvenile Sprague-Dawley rat assessed as ocular inflammation at 5 to 75 mg/kg/day, po treatment started from postnatal day 18 to 114 days; type: organism-based; conditions: in vivo, dose lower 5 mg/kg/day, time lower 18 day, dose upper 75 mg/kg/day, time upper 114 day
[2] = target: T1, Very long chain fatty acid elongase 1 (Homo sapiens, UniProt Q9BW60); experiment: Inhibition of ELOVL1 in CALD patient-derived human fibroblast assessed as reduction of C26:0 VLCFA synthesis incubated for 48 hrs by cellular assay; type: cell-based
T1 sequence (Q9BW60 whole entry): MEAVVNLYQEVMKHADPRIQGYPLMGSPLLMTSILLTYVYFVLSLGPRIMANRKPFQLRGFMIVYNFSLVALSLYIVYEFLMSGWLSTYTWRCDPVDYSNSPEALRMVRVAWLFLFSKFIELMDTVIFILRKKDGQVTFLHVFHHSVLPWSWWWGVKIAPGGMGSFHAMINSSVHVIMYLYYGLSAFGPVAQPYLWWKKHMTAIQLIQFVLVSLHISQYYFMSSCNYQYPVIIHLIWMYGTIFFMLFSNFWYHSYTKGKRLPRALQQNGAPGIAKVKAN

[3] = Toxicity in Cynomolgus monkey assessed as skin lesions at 1 mg/kg/day, po observed from 8 to 13 weeks; type: organism-based, Macaca fascicularis; conditions: in vivo, time 8-13 weeks
[4] = Intrinsic clearance in human hepatocytes assessed per million cells; type: ADME, cell-based, Hepatocyte; conditions: read-out: CLH
[5] = Reduction in C26:0/C16:0 LPC level in wild-type Sprague-Dawley rat at 100 mg/kg, po qd treated for 7 days by LC-MS/MS analysis; type: functional; parameters: scale not given: the % may be the effect or the level left; conditions: time 7 day
[6] = Tmax in Beagle dog at 3 mg/kg, po upto 24 hrs by LC/MS/MS analysis; type: ADME, organism-based, Canis lupus familiaris; conditions: in vivo
[7] = Reduction in C26:0 LPC level in ABCD1 knock out mouse blood at 0.5 mg/kg, po qd for 105 days by LC-MS/MS analysis relative to control; type: functional; parameters: scale not given: the % may be the effect or the level left; conditions: time 105 day
[8] = Reduction in C26:0/C16:0 LPC level in wild-type Sprague-Dawley rat at 300 mg/kg, po qd treated for 7 days by LC-MS/MS analysis; type: functional; parameters: scale not given: the % may be the effect or the level left; conditions: time 7 day
[9] = Plasma protein binding in monkey at 5 uM; type: ADME, cell-free, Macaca mulatta; conditions: rhesus monkey, read-out: PPB (converted)
[10] = Toxicity in Cynomolgus monkey assessed as dry and red scaly areas on face at 5 to 50 mg/kg/day, po administered for 14 days by macroscopic observation analysis; type: organism-based, Macaca fascicularis; conditions: in vivo, 336 h, dose 5-50 mg/kg/day, time 14 day
[11] = Toxicity in Cynomolgus monkey assessed as neurological signs of convulsions at 50 mg/kg/day, po administered for 14 days; type: organism-based, Macaca fascicularis; conditions: in vivo, 336 h, time 14 day
[12] = Toxicity in Cynomolgus monkey assessed as adverse skin lesions at 20 to 50 mg/kg/day, po administered for 14 days; type: organism-based, Macaca fascicularis; conditions: in vivo, 336 h, dose 20-50 mg/kg/day, time 14 day
[13] = Toxicity in Sprague-Dawley rat assessed as ocular epithelial atrophy at 5 mg/kg/day, po administered for 8 weeks by microscopic observation analysis; type: organism-based; conditions: in vivo, 1344 h
[14] = Toxicity in Sprague-Dawley rat assessed as adverse effects at 5 to 50 mg/kg/day, po administered for 8 weeks and measured after cessation dosing by long-term safety study; type: organism-based; conditions: in vivo, 1344 h, dose 5-50 mg/kg/day
[15] = Toxicity in ABCD1 knock out mouse assessed as noticeable adverse effects at 8 to 32 mg/kg, po qd treated for 6 months; type: organism-based; conditions: in vivo, 4380 h, dose 8-32 mg/kg
[16] = Reduction in C26:0/C16:0 LPC level in ABCD1 knock out mouse CNS at 8 mg/kg, po qd measured after 6 months of dosing by LC-MS/MS analysis; type: functional; parameters: scale not given: the % may be the effect or the level left; conditions: 4380 h
[17] = Toxicity in Cynomolgus monkey assessed as hyperkeratosis at 5 to 50 mg/kg/day, po administered for 14 days by microscopic observation analysis; type: organism-based, Macaca fascicularis; conditions: in vivo, 336 h, dose 5-50 mg/kg/day, time 14 day
[18] = target: T1, Very long chain fatty acid elongase 1; experiment: Inhibition of ELOVL1 in human HEK293 cells assessed as reduction of C26:0 VLCFA synthesis incubated for 48 hrs by cellular assay; type: cell-based
HepG2 = experiment: Cytotoxicity against human HepG2 cells assessed as decrease in intracellular ATP levels incubated for 72 hrs by Cell Titer-Glo luminescence assay; type: functional; conditions: read-out: TC50 (the source's name)
[19] = target: T1, Very long chain fatty acid elongase 1; experiment: Inhibition of ELOVL1 (unknown origin) using C22-acyl-CoA as substrate by radiometric enzyme assay
[20] = Half life in Sprague-Dawley rat at 1 mg/kg, iv upto 48 hrs by LC/MS/MS analysis; type: ADME, organism-based; conditions: in vivo
[21] = target: T1, Very long chain fatty acid elongase 1; experiment: Inhibition of ELOVL1 in human HEK2936E cells assessed as reduction of C26:0 LPC synthesis incubated for 48 hrs by cellular assay; type: cell-based
[22] = Reduction in C26:0/C16:0 LPC level in ABCD1 knock out mouse CNS at 16 mg/kg, po qd measured after 6 months of dosing by LC-MS/SMS analysis; type: functional; parameters: scale not given: the % may be the effect or the level left; conditions: 4380 h
[23] = Volume of distribution at steady state in Beagle dog at 0.5 mg/kg, iv upto 48 hrs by LC/MS/MS analysis; type: ADME, organism-based, Canis lupus familiaris; conditions: in vivo, read-out: Vdss
[24] = Increase in C20:0/C16:0 LPC level in ABCD1 knock out mouse CNS at 10 mg/kg, po qd measured after 3 months of dosing by LC-MS/MS analysis; type: functional; conditions: 2190 h
[25] = target: T2, Very long chain fatty acid elongase 7 (Homo sapiens) (UniProt A1L3X0); experiment: Inhibition of ELOVL-7 in human HEK2936E cells assessed as reduction in C22:0 lysophosphatidyl choline synthesis at 100 nM in presence of 13C-labeled acetate measured after 48 hrs; type: cell-based
T2 sequence (whole entry): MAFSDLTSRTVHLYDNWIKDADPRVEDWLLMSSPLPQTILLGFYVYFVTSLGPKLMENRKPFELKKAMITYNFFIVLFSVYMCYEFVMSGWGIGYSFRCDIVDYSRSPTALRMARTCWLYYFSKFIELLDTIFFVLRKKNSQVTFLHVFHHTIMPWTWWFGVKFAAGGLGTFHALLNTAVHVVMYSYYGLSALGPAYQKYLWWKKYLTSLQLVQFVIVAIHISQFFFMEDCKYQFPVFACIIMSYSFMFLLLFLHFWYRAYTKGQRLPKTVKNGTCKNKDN

[26] = target: T3, Adenosine receptor A3 (Homo sapiens) (UniProt P0DMS8); experiment: Inhibition of Adenosine A3 Receptor (unknown origin) at 10 uM
T3 sequence (whole entry): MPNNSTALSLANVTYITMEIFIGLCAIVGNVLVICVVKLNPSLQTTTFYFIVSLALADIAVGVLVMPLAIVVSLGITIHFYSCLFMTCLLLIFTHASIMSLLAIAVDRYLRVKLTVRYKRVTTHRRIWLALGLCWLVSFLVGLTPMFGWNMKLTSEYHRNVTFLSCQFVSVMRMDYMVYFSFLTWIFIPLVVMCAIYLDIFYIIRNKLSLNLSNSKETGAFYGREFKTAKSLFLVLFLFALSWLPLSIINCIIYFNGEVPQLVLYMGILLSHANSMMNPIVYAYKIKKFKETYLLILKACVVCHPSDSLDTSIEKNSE

O=C(Nc1ccn(-c2ccnc(F)c2)n1)C1(c2ccccc2F)CC1
Activity [1]: Toxic
IC50 [2]: 20 nM
Activity [3]: Non-Toxic
hepatocyte CLint [4]: < 4 µL/min/1e6 cells
Activity [5]: 77%
Tmax [6]: 0.5 h
Activity [7]: 50%
Activity [8]: 85%
fraction unbound at 5 µM [9]: 0.094
Activity [10]: Toxic
Activity [11]: Toxic
Activity [12]: Toxic
Activity [13]: Toxic
Activity [14]: Non-Toxic
Activity [15]: Non-Toxic
Activity [16]: 54%
Activity [17]: Toxic
IC50 [18]: 13 nM
CC50 (HepG2): > 100000 nM
IC50 [19]: 900 nM
half-life [20]: 3.5 h
IC50 [21]: 13 nM
Activity [22]: 55%
Vd [23]: 7.5 L/kg
Activity [24]: 38%
inhibition [25]: Active
inhibition [26]: > 50%
